Laboratory results taken from ChEMBL document CHEMBL5543147, “Discovery and Characterization of a Novel Cereblon-Recruiting PRC1 Bridged PROTAC Degrader” (J Med Chem, 2024).
Calls of active or inactive are those of the source. No cut-off for these calls is given here.

Experiments:
[1] = tested on: K562; assay: Induction of PRC2 degradation in human K562 cells assessed as reduction of H3K27me3 chromatin mark at 0.1 to 10 uM incubated for 24 hrs by Western blotting analysis; format: cell-based; conditions: dose 0.1-10 µM
[2] = target: T1, Protein cereblon/E3 ubiquitin-protein ligase RING2 (Homo sapiens, UniProt Q96SW2+Q99496); assay: PROTAC activity at CRBN/RING1B in human K562 cells assessed as degradation of RING1B protein expression at 0.1 to 10 uM incubated for 24 hrs by Western blotting analysis; format: cell-based; conditions: dose 0.1-10 µM
[3] = target: Protein cereblon/Polycomb complex protein BMI-1 (Homo sapiens, UniProt Q96SW2+P35226); assay: PROTAC activity at […] in human K562 cells assessed as degradation of BMI1 protein expression at 0.1 to 10 uM incubated for 24 hrs by Western blotting analysis; format: cell-based; conditions: dose 0.1-10 µM
[4] = target: Protein cereblon/Polycomb protein EED (Homo sapiens, UniProt O75530+Q96SW2); assay: PROTAC activity at CRBN/EED in human K562 cells assessed as degradation of EED protein expression at 0.1 to 10 uM incubated for 24 hrs by Western blotting analysis; format: cell-based; conditions: dose 0.1-10 µM
[5] = tested on: K562; assay: Induction of PRC1 degradation in human K562 cells assessed as reduction of H2AK119ub chromatin mark at 0.1 to 10 uM incubated for 24 hrs by Western blotting analysis; format: cell-based; conditions: dose 0.1-10 µM
[6] = target: Protein cereblon/Polycomb protein SUZ12 (Homo sapiens) (UniProt Q15022+Q96SW2); assay: PROTAC activity at CRBN/SUZ12 in human K562 cells assessed as degradation of SUZ12 protein expression at 0.1 to 10 uM incubated for 24 hrs by Western blotting analysis; format: cell-based; conditions: dose 0.1-10 µM
[7] = target: Protein cereblon/Histone-lysine N-methyltransferase EZH2 (Homo sapiens) (UniProt Q15910+Q96SW2); assay: PROTAC activity at CRBN/EZH2 in human K562 cells assessed as degradation of EZH2 protein expression at 0.1 to 10 uM incubated for 24 hrs by Western blotting analysis; format: cell-based; conditions: dose 0.1-10 µM
[8] = target: von Hippel-Lindau disease tumor suppressor/Histone-lysine N-methyltransferase EZH2 (Homo sapiens, UniProt Q15910+P40337); assay: PROTAC activity at VHL/EZH2 in human KARPAS-422 cells assessed as degradation of EZH2 protein expression by Western blotting analysis; format: cell-based
[9] = target: von Hippel-Lindau disease tumor suppressor/Polycomb protein EED (Homo sapiens, UniProt O75530+P40337); assay: PROTAC activity at VHL/EED in human KARPAS-422 cells assessed as degradation of EED protein expression by Western blotting analysis; format: cell-based
[10] = target: T1, Protein cereblon/E3 ubiquitin-protein ligase RING2; assay: PROTAC activity at CRBN/RING1B in human K562 cells assessed as degradation of RING1B protein expression at 1 to 10 uM incubated for 24 hrs by Western blotting analysis; format: cell-based; conditions: dose 1-10 µM
[11] = target: T2, von Hippel-Lindau disease tumor suppressor/Polycomb complex protein BMI-1 (Homo sapiens) (UniProt P40337+P35226); assay: PROTAC activity at […] in human K562 cells assessed as degradation of BMI1 protein expression at 1 to 10 uM incubated for 24 hrs by Western blotting analysis; format: cell-based; conditions: dose 1-10 µM
[12] = tested on: K562; assay: Induction of PRC2 degradation in human K562 cells assessed as reduction of H3K27me3 chromatin mark at 1 to 10 uM incubated for 24 hrs by Western blotting analysis; format: cell-based; conditions: dose 1-10 µM
[13] = tested on: K562; assay: Antiproliferative activity against human K562 cells assessed as cell growth inhibition incubated for 7 days by WST-8 assay; format: functional; conditions: time 7.0 day
[14] = tested on: K562; assay: Induction of PRC1 degradation in human K562 cells assessed as reduction of H2AK119ub chromatin mark at 1 to 10 uM incubated for 24 hrs by Western blotting analysis; format: cell-based; conditions: dose 1-10 µM
[15] = target: T1, Protein cereblon/E3 ubiquitin-protein ligase RING2; assay: PROTAC activity at CRBN/RING1B in human 786-0 cells with defective VHL assessed as degradation of RING1B protein expression at 10 uM incubated for 24 hrs by Western blotting analysis; format: cell-based
[16] = target: Polycomb protein EED (Homo sapiens, UniProt O75530); assay: Binding affinity to EED (75 to 441 residues) (unknown origin) expressed in Escherichia coli BL21 (DE3) assessed as dissociation constant by isothermal titration calorimetry
[17] = tested on: 786-0; assay: Induction of PRC1 degradation in human 786-0 cells with defective VHL assessed as reduction of H2AK119ub chromatin mark at 10 uM incubated for 24 hrs by Western blotting analysis; format: cell-based
[18] = target: T2, von Hippel-Lindau disease tumor suppressor/Polycomb complex protein BMI-1 (Homo sapiens); assay: PROTAC activity at […] in human 786-0 cells with defective VHL assessed as degradation of BMI1 protein expression at 10 uM incubated for 24 hrs by Western blotting analysis; format: cell-based
[19] = tested on: 786-0; assay: Induction of PRC2 degradation in human 786-0 cells with defective VHL assessed as reduction of H3K27me3 chromatin mark at 10 uM incubated for 24 hrs by Western blotting analysis; format: cell-based
[20] = tested on: 786-0; assay: Antiproliferative activity against human 786-0 cells assessed as inhibition of cell growth at 0.5 to 30 uM incubated for 7 days by WST-8 assay; format: functional, cell-based; conditions: dose 0.5-30 µM, time 7.0 day
[21] = tested on: PC-3M; assay: Induction of PRC1 degradation in human PC-3M cells assessed as reduction of H2AK119ub chromatin mark at 0.2 to 5 uM incubated for 24 hrs by Western blotting analysis; format: cell-based; conditions: dose 0.2-5 µM
[22] = tested on: K562; assay: Antiproliferative activity against human K562 cells assessed as increase in HoxD mRNA expression at 10 uM incubated for 24 hrs by RT-qPCR analysis; format: functional, cell-based
[23] = tested on: MDA-MB-468; assay: Induction of PRC1 degradation in human MDA-MB-468 cells assessed as reduction of H2AK119ub chromatin mark at 0.2 to 5 uM incubated for 24 hrs by Western blotting analysis; format: cell-based; conditions: dose 0.2-5 µM
[24] = tested on: MDA-MB-468; assay: Induction of PRC2 degradation in human MDA-MB-468 cells assessed as reduction of H3K27me3 chromatin mark at 0.2 to 5 uM incubated for 24 hrs by Western blotting analysis; format: cell-based; conditions: dose 0.2-5 µM
[25] = tested on: PC-3M; assay: Induction of PRC2 degradation in human PC-3M cells assessed as reduction of H3K27me3 chromatin mark at 0.2 to 5 uM incubated for 24 hrs by Western blotting analysis; format: cell-based; conditions: dose 0.2-5 µM
[26] = tested on: K562; assay: Antiproliferative activity against human K562 cells assessed as increase in HoxA mRNA expression at 10 uM incubated for 24 hrs by RT-qPCR analysis; format: functional, cell-based

Sequence of Protein cereblon/Polycomb protein SUZ12 (Homo sapiens) (Q15022 whole entry, looked up): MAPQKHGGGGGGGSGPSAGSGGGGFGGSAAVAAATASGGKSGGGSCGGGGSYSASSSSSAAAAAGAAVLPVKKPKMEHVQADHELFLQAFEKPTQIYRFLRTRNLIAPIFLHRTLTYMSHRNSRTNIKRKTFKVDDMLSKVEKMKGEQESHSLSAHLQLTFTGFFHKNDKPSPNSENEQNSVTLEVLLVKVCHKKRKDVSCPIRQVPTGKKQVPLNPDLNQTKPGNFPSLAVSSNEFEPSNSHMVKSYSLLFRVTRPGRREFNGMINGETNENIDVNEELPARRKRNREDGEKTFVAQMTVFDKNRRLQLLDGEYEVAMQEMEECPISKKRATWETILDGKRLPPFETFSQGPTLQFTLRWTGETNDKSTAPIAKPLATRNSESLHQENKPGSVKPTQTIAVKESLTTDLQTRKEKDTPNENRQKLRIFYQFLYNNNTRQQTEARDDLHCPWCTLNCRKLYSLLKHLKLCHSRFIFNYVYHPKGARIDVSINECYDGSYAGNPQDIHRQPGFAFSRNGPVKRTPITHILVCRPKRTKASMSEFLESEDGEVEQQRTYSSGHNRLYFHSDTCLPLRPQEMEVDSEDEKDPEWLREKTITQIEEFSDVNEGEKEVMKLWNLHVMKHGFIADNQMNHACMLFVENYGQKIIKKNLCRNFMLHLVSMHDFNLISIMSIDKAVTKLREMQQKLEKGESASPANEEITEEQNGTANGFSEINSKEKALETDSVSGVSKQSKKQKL
Sequence of Protein cereblon/Polycomb protein SUZ12 (Homo sapiens) (Q96SW2 whole entry, looked up): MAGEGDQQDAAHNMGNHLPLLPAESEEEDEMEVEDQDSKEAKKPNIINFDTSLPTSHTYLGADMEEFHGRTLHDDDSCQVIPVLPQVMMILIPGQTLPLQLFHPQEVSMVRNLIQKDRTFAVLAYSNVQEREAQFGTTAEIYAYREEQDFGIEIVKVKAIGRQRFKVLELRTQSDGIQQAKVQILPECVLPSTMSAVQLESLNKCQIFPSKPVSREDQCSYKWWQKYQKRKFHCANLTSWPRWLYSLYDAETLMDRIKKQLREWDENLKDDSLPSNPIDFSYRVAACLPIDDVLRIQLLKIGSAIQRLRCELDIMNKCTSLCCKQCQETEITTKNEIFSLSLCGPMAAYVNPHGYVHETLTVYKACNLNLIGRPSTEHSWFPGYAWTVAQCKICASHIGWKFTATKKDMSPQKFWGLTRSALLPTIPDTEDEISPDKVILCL
T2 sequence (P35226 whole entry, looked up): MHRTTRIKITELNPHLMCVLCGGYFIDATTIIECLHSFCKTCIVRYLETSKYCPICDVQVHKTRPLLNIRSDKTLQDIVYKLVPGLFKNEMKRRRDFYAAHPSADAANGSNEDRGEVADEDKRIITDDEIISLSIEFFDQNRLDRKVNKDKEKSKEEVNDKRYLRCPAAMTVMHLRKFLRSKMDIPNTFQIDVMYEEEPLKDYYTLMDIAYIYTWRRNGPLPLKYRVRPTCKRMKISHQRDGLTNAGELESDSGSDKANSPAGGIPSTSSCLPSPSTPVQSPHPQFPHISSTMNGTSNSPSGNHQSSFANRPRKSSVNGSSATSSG
T2 sequence (P40337 whole entry, looked up): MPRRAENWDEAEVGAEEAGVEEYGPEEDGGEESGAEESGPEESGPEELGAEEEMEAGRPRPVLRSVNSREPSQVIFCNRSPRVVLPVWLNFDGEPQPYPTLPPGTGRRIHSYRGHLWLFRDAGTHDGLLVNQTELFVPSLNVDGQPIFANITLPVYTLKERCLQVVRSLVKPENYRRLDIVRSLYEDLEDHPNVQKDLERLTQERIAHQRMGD
Sequence of Protein cereblon/Polycomb complex protein BMI-1 (P35226 whole entry, looked up): as the sequence (P35226 whole entry, looked up) above
Sequence of Protein cereblon/Polycomb complex protein BMI-1 (Q96SW2 whole entry, looked up): as the sequence (Q96SW2 whole entry, looked up) above
Sequence of Protein cereblon/Histone-lysine N-methyltransferase EZH2 (Homo sapiens) (Q15910 whole entry, looked up): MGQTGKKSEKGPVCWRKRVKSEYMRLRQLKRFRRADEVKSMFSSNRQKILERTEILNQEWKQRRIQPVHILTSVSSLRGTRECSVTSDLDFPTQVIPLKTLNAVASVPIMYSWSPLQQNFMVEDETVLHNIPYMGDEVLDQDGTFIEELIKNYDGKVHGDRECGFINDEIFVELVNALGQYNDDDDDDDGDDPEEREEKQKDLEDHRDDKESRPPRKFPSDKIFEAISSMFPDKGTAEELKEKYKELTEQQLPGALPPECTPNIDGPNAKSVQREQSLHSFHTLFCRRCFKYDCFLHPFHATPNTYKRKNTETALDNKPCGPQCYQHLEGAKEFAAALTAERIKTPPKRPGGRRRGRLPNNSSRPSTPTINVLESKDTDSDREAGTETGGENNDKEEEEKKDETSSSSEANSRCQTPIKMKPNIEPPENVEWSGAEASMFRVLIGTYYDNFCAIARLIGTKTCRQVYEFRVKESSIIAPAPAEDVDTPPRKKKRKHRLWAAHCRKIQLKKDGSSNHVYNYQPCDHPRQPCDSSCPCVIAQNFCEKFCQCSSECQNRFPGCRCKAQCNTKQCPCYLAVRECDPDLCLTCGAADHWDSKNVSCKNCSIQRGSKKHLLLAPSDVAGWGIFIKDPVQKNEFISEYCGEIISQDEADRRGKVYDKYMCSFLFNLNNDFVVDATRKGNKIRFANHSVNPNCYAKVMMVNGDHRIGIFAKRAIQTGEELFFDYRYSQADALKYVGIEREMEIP
Sequence of Protein cereblon/Histone-lysine N-methyltransferase EZH2 (Homo sapiens) (Q96SW2 whole entry, looked up): as the sequence (Q96SW2 whole entry, looked up) above
T1 sequence (Q96SW2 whole entry): as the sequence (Q96SW2 whole entry, looked up) above
T1 sequence (Q99496 2-336 partner limits assumed): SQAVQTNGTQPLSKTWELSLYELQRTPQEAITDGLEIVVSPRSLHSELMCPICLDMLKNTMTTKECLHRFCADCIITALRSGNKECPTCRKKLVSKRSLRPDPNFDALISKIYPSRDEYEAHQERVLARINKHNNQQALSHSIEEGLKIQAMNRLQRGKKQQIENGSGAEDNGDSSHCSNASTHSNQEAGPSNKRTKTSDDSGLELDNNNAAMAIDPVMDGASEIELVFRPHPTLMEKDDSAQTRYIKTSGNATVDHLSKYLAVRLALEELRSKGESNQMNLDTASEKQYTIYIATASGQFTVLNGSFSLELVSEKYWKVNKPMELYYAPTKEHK
Sequence of Protein cereblon/Polycomb protein EED (O75530 2-441 limits assumed): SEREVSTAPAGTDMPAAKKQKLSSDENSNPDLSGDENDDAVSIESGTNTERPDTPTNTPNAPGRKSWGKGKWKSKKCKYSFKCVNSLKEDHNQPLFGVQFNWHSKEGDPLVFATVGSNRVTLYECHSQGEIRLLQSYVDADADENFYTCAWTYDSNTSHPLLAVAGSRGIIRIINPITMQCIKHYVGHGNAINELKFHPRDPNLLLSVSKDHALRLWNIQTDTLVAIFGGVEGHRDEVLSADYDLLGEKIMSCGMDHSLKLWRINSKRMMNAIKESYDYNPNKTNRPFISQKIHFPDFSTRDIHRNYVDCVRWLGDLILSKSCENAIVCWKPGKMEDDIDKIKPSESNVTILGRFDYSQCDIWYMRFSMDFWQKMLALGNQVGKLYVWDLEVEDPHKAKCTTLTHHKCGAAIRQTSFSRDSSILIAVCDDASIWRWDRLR
Sequence of Protein cereblon/Polycomb protein EED (Q96SW2 whole entry partner): as the sequence (Q96SW2 whole entry, looked up) above
Sequence of Polycomb protein EED (O75530 whole entry, the tested form may be a part): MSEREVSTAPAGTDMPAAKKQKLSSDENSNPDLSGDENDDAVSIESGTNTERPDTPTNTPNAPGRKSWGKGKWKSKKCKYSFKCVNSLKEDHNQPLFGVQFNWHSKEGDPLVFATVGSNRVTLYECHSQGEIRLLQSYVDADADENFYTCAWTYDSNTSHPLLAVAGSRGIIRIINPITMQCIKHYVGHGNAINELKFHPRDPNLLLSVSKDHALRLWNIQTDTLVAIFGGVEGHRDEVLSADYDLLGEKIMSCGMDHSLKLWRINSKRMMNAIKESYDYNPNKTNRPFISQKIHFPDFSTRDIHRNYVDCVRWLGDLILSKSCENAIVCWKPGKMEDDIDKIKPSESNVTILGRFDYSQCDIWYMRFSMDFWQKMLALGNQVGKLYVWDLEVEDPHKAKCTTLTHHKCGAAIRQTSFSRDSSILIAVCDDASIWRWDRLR
Sequence of von Hippel-Lindau disease tumor suppressor/Polycomb protein EED (O75530 whole entry): as the sequence (O75530 whole entry, the tested form may be a part) above
Sequence of von Hippel-Lindau disease tumor suppressor/Polycomb protein EED (P40337 whole entry): as the sequence (P40337 whole entry, looked up) above
Sequence of von Hippel-Lindau disease tumor suppressor/Histone-lysine N-methyltransferase EZH2 (Q15910 whole entry): as the sequence (Q15910 whole entry, looked up) above
Sequence of von Hippel-Lindau disease tumor suppressor/Histone-lysine N-methyltransferase EZH2 (P40337 whole entry): as the sequence (P40337 whole entry, looked up) above

| Structure (SMILES) | Activity [1] | Activity [2] | Activity [3] | Activity [4] | Activity [5] | Activity [6] | Activity [7] | other results |
| --- | --- | --- | --- | --- | --- | --- | --- | --- |
| O=C(CCOCCOCCOCCOCCNc1cccc2c1C(=O)N(C1CCC(=O)NC1=O)C2=O)NCCCCN1CCN(c2ccc(-c3cnc(NCc4ccco4)n4cnnc34)cc2)CC1 (stereo unspecified) | inactive | inactive | inactive | inactive | inactive | inactive | inactive |  |
| O=C(CCOCCNc1cccc2c1C(=O)N(C1CCC(=O)NC1=O)C2=O)NCCCCN1CCN(c2ccc(-c3cnc(NCc4ccco4)n4cnnc34)cc2)CC1 (stereo unspecified) | inactive | inactive | inactive | inactive | inactive | inactive | inactive |  |
| Cc1nc(CCC(=O)NCCCC(=O)N[C@H](C(=O)N2C[C@H](O)C[C@H]2C(=O)NCc2ccc(-c3scnc3C)cc2)C(C)(C)C)ccc1-c1cnc(NCc2c(F)ccc3c2CCO3)n2cnnc12 |  |  |  |  |  |  |  | DC50 [8]: < 1000 nM; DC50 [9]: < 120 nM |
| O=C(CCCCCNc1cccc2c1C(=O)N(C1CCC(=O)NC1=O)C2=O)NCCCCN1CCN(c2ccc(-c3cnc(NCc4ccco4)n4cnnc34)cc2)CC1 (stereo unspecified) | inactive | inactive | inactive | inactive | inactive | inactive | inactive |  |
| Cc1ncsc1-c1ccc(CNC(=O)[C@@H]2C[C@@H](O)CN2C(=O)[C@@H](NC(=O)CCCNC(=O)c2ccc(-c3cnc(NCc4ccco4)n4cnnc34)cc2)C(C)(C)C)cc1 |  |  |  |  |  |  |  | Activity [10]: inactive; Activity [11]: inactive; Activity [12]: Active; Activity [13]: inactive; Activity [14]: inactive |
| Cc1ncsc1-c1ccc(CNC(=O)[C@@H]2C[C@@H](O)CN2C(=O)[C@@H](NC(=O)CCCCCCNC(=O)CCCCN2CCN(c3ccc(-c4cnc(NCc5ccco5)n5cnnc45)cc3)CC2)C(C)(C)C)cc1 |  |  |  |  |  |  |  | Activity [15]: inactive; Kd [16]: 3000 nM; Activity [17]: Active; Activity [18]: inactive; Activity [19]: Active; Activity [20]: inactive |
| O=C(CCOCCOCCOCCNc1cccc2c1C(=O)N(C1CCC(=O)NC1=O)C2=O)NCCCCN1CCN(c2ccc(-c3cnc(NCc4ccco4)n4cnnc34)cc2)CC1 (stereo unspecified) | inactive | inactive | inactive | inactive | inactive | inactive | inactive |  |
| O=C(CCCCNc1cccc2c1C(=O)N(C1CCC(=O)NC1=O)C2=O)NCCCCN1CCN(c2ccc(-c3cnc(NCc4ccco4)n4cnnc34)cc2)CC1 (stereo unspecified) | inactive | inactive | inactive | inactive | inactive | inactive | inactive |  |
| O=C(CCCNc1cccc2c1C(=O)N(C1CCC(=O)NC1=O)C2=O)NCCCCN1CCN(c2ccc(-c3cnc(NCc4ccco4)n4cnnc34)cc2)CC1 (stereo unspecified) | inactive | inactive | inactive | inactive | inactive | inactive | inactive |  |
| CS(=O)(=O)c1ccc(-c2cnc(NCc3ccco3)n3cnnc23)cc1 |  |  |  |  |  |  |  | Activity [21]: inactive; Activity [22]: inactive; Activity [23]: inactive; Activity [15]: inactive; Activity [24]: Active; Activity [10]: inactive; Activity [11]: inactive; Activity [18]: inactive; Activity [25]: Active; Activity [12]: Active; Activity [13]: inactive; Activity [26]: inactive |
| O=C(CCOCCOCCNc1cccc2c1C(=O)N(C1CCC(=O)NC1=O)C2=O)NCCCCN1CCN(c2ccc(-c3cnc(NCc4ccco4)n4cnnc34)cc2)CC1 (stereo unspecified) | Active | inactive | inactive | Active | inactive | Active | Active |  |
| O=C(CCNc1cccc2c1C(=O)N(C1CCC(=O)NC1=O)C2=O)NCCCCN1CCN(c2ccc(-c3cnc(NCc4ccco4)n4cnnc34)cc2)CC1 (stereo unspecified) | inactive | inactive | inactive | inactive | inactive | inactive | inactive |  |
